# Test results taken from patent publication US7547727B2, “Therapeutic cyclopentane derivatives” (Allergan, Inc., priority 2006, dated 2009).
# What was measured:
# human EP2 receptors = biological target: T1, human EP2 receptors (Homo sapiens, UniProt P43116); experiment: Competition radioligand binding, EP2; details: HEK 293 cells stably expressing human EP2 receptors, [3H]PGE2
# T1 construct: expressed in transfected cells; host or cells: HEK 293 (membranes or whole cells)
# Description: Competition binding experiments were performed in a medium containing Hank's balanced salt solution, Hepes 20 mM, pH 7.3, membranes (˜60 μg protein) or 2×10^5 cells from HEK 293 cells stably expressing human EP2 receptors, [^3H]PGE2 (10 nM) and various concentrations of test compounds in a total volume of 300 μl. Reaction mixtures were incubated at 23° C. for 60 min, and were filtered over Whatman GF/B filters under vacuum. Filters were washed three times with 5 ml ice-cold buffer containing 50 mM Tris/HCl (pH 7.3). Non-specific binding was estimated in the presence of excess unlabeled PGE2 (10 μM). Binding data fitted to the binding model for a single class of binding sites, using nonlinear regression analysis. IC50 values thus obtained were converted to Ki using the equation of Ki=(IC50/(1+[L]/KD) where [L] represents PGE2 concentration (10 nM) and KD the dissociation constant for [^3H]PGE2 at human EP2 receptors (40 nM). […]
# The cell homogenate was centrifuged at 19000 r.p.m. for 20 min at 4° C. using a Beckman Ti-60 rotor. The resultant pellet was resuspended in TME buffer to give a final 1 mg/ml protein concentration, as determined by Biorad assay. […]
# [^3H-] […] 17-phenyl PGF2α and non-specific binding determined with 10^−5M of unlabeled PGE2, or 17-phenyl PGF2α, according to receptor subtype studied.
# hEP3A/Gqi5 = biological target: T2, hEP3A/Gqi5 (Homo sapiens, UniProt P43115); experiment: FLIPR calcium signal, EP3; assay type: cell-based; details: HEK-293(EBNA) cells, read-out: Ca2+ Signal-EC50(nM) EP3
# T2 construct: expressed in transfected cells; host or cells: HEK-293(EBNA)
# T2 sequence (P43115 1-390): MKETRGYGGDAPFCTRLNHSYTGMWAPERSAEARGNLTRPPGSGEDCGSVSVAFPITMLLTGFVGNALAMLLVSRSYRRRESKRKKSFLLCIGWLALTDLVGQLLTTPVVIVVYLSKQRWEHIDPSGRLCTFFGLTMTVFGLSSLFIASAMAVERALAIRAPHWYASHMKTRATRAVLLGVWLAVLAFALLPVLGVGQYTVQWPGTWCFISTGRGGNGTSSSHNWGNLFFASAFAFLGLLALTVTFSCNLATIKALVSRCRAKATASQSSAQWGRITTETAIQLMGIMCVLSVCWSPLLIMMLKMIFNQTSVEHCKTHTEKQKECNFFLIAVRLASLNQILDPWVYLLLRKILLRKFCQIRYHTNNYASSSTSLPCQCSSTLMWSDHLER
# Description: (§1) HEK-293(EBNA) cells, stably expressing one type or subtype of recombinant human prostaglandin receptors (prostaglandin receptors expressed: hDP/Gqs5; hEP1; hEP2/Gqs5; hEP3A/Gqi5; hEP4/Gqs5; hFP; hIP; hTP), were cultured in 100 mm culture dishes in high-glucose DMEM medium containing 10% fetal bovine serum, 2 mM I-glutamine, 250 μg/ml geneticin (G418) and 200 μg/ml hygromycin B as selection markers, and 100 units/ml penicillin G, 100 μg/ml streptomycin and 0.25 μg/ml amphotericin B.
# (§2) Cells were seeded at a density of 5×10^4 cells per well in Biocoat® Poly-D-lysine-coated black-wall, clear-bottom 96-well plates (Becton-Dickinson) and allowed to attach overnight in an incubator at 37° C. Cells were then washed two times with HBSS-HEPES buffer (Hanks Balanced Salt Solution without bicarbonate and phenol red, 20 mM HEPES, pH 7.4) using a Denley Cellwash plate washer (Labsystems). […]
# (§3) Cells were excited with an Argon laser at 488 nm, and emission was measured through a 510-570 nm bandwidth emission filter (FLIPR™, Molecular Devices, Sunnyvale, Calif.). […] The peak increase in fluorescence intensity was recorded for each well. […] The peak fluorescence change in each drug-containing well was then expressed relative to the controls. […]
# EP4 receptors = biological target: T3, EP4 receptors (Homo sapiens, UniProt P35408); experiment: Radioligand binding, EP4; details: HEK-293 cells stably expressing EP4 receptors, [3H]PGE2
# T3 construct: expressed in transfected cells; host or cells: HEK-293 (plasma membrane fraction)
# Description: HEK-293 cells stably expressing the human or feline FP receptor, or EP1, EP2, or EP4 receptors were washed with TME buffer, scraped from the bottom of the flasks, and homogenized for 30 sec using a Brinkman PT 10/35 polytron. TME buffer was added to achieve a final 40 ml volume in the centrifuge tubes (the composition of TME is 100 mM TRIS base, 20 mM MgCl2, […]; 10N HCl is added to achieve a pH of 7.4).
# The cell homogenate was centrifuged at 19000 r.p.m. for 20 min at 4° C. using a Beckman Ti-60 rotor. The resultant pellet was resuspended in TME buffer to give a final 1 mg/ml protein concentration, as determined by Biorad assay. Radioligand binding competition assays vs. [^3H-]17-phenyl PGF2α (5 nM) were performed in a 100 μl volume for 60 min. Binding reactions were started by adding plasma membrane fraction. The reaction was terminated by the addition of 4 ml ice-cold TRIS-HCl buffer and rapid filtration through glass fiber GF/B filters using a Brandel cell harvester. The filters were washed 3 times with ice-cold buffer and oven dried for one hour.
# [^3H-] PGE2 (specific activity 180 Ci mmol) was used as the radioligand for EP receptors. [^3H] 17-phenyl PGF2α was employed for FP receptor binding studies. […] 17-phenyl PGF2α and non-specific binding determined with 10^−5M of unlabeled PGE2, or 17-phenyl PGF2α, according to receptor subtype studied.
# hFP = biological target: T4, hFP (Homo sapiens, UniProt P43088); experiment: FLIPR calcium signal, FP; assay type: cell-based; details: HEK-293(EBNA) cells
# T4 construct: expressed in transfected cells; host or cells: HEK-293(EBNA)
# Description: as §1, §2, §3
# hIP = biological target: T5, hIP (Homo sapiens, UniProt P43119); experiment: FLIPR calcium signal, IP; assay type: cell-based; details: HEK-293(EBNA) cells
# T5 construct: expressed in transfected cells; host or cells: HEK-293(EBNA)
# Description: as §1, §2, §3
# hEP4/Gqs5 = biological target: T6, hEP4/Gqs5 (Homo sapiens, UniProt P35408); experiment: FLIPR calcium signal, EP4; assay type: cell-based; details: HEK-293(EBNA) cells
# T6 construct: expressed in transfected cells; host or cells: HEK-293(EBNA)
# Description: as §1, §2, §3
# hEP1 = biological target: T7, hEP1 (Homo sapiens, UniProt P34995); experiment: FLIPR calcium signal, EP1; assay type: cell-based; details: HEK-293(EBNA) cells
# T7 construct: expressed in transfected cells; host or cells: HEK-293(EBNA)
# T7 sequence (P34995 1-402): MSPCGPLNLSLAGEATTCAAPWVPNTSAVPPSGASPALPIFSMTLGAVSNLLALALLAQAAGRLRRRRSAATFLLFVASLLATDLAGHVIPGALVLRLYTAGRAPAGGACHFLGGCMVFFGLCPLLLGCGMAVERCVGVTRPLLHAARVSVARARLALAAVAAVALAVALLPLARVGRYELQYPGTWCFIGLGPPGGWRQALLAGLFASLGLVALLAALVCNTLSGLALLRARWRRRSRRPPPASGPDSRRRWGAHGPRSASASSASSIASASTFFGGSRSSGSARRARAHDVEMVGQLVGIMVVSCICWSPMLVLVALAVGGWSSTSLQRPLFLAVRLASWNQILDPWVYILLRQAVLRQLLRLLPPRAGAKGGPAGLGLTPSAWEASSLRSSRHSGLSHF
# Description: as §1, §2, §3
# hEP2/Gqs5 = biological target: T8, hEP2/Gqs5 (Homo sapiens, UniProt P43116); experiment: FLIPR calcium signal, EP2; assay type: cell-based; details: HEK-293(EBNA) cells, read-out: Ca2+ Signal-EC50(nM) EP2
# T8 construct: expressed in transfected cells; host or cells: HEK-293(EBNA)
# Description: as §1, §2, §3
# hTP = biological target: T9, hTP (Homo sapiens, UniProt P21731); experiment: FLIPR calcium signal, TP; assay type: cell-based; details: HEK-293(EBNA) cells
# T9 construct: expressed in transfected cells; host or cells: HEK-293(EBNA)
# T9 sequence (P21731 1-343): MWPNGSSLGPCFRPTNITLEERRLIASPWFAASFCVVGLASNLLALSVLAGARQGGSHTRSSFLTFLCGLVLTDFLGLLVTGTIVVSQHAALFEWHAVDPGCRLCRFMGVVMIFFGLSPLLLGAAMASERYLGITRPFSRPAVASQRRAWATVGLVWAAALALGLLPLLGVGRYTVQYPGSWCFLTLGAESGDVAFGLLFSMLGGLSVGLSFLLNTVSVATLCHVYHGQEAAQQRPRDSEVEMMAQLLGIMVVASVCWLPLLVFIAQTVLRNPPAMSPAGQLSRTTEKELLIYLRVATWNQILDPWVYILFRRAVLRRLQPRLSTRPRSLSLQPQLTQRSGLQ
# Description: as §1, §2, §3
# hDP/Gqs5 = biological target: T10, hDP/Gqs5 (Homo sapiens, UniProt Q13258); experiment: FLIPR calcium signal, DP; assay type: cell-based; details: HEK-293(EBNA) cells
# T10 construct: expressed in transfected cells; host or cells: HEK-293(EBNA)
# T10 sequence (Q13258 1-359): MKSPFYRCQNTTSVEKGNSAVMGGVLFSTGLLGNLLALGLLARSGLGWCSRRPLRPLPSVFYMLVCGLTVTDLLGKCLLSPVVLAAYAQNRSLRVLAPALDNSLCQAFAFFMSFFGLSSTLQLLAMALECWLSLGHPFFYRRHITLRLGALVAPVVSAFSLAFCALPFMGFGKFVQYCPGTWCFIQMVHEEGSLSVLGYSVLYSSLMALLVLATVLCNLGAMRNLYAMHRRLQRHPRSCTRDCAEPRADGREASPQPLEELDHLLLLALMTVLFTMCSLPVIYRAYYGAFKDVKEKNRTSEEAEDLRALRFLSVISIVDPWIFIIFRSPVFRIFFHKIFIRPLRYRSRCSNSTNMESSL
# Description: as §1, §2, §3
# T5 sequence (P43119 whole entry): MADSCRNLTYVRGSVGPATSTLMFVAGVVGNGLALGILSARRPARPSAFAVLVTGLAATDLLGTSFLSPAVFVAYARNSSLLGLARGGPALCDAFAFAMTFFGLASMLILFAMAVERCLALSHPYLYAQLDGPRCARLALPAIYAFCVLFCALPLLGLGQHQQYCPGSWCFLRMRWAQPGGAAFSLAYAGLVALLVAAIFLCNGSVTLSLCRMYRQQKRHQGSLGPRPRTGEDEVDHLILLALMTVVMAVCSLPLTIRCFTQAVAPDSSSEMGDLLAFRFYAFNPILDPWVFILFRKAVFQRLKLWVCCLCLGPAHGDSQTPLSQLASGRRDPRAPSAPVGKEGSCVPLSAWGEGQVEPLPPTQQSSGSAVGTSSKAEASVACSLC
# T1 sequence (P43116 whole entry): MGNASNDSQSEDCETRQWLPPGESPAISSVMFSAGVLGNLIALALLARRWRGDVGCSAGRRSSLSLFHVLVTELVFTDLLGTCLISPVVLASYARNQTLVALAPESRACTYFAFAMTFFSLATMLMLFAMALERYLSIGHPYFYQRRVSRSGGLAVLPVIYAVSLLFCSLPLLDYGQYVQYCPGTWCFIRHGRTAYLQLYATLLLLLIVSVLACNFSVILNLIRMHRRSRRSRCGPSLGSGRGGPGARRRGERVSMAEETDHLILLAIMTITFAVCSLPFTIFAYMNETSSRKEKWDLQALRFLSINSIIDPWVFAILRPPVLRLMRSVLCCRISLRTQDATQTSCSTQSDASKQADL
# T8 sequence (P43116 whole entry): as above
# T4 sequence (P43088 whole entry): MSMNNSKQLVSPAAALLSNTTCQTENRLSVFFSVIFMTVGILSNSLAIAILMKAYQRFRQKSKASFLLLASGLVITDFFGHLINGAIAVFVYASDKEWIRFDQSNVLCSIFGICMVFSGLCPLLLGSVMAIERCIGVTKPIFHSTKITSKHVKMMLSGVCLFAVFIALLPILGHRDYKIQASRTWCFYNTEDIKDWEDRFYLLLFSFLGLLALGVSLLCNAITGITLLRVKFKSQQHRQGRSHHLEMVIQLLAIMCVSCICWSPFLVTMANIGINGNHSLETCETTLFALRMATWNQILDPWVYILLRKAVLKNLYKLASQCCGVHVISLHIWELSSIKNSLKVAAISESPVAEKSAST
# T6 sequence (P35408 whole entry): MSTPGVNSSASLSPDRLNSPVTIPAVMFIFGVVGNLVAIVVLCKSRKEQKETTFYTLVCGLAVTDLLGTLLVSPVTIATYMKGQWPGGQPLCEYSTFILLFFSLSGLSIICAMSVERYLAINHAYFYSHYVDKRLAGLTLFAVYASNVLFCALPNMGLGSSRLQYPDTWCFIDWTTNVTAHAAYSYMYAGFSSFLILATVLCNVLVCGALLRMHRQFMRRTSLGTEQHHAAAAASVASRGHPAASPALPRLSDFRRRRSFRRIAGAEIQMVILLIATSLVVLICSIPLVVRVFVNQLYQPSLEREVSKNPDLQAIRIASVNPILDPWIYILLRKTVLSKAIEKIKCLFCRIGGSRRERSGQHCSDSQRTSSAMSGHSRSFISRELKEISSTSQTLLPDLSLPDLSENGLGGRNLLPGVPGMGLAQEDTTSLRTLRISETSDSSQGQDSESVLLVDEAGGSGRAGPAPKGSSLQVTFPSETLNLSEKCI
# T3 sequence (P35408 whole entry): as above
compound,measurement,setting,value
"CCCCCC(O)c1ccc([C@@H]2[C@@H](C/C=C\CCCC(=O)O)[C@H](C#N)C[C@H]2O)cc1 (stereo partly drawn) [(Z)-7-{(1S,2S,3R,5R)-5-Cyano-3-hydroxy-2-[4-(1-hydroxy-hexyl)-phenyl]-cyclopentyl}-hept-5-enoic acid]",Ki,human EP2 receptors,1250 nM
same,EC50,hEP3A/Gqi5,10000 nM
same,Ki,EP4 receptors,> 10000 nM
same,Ca2+ Signal-EC50(nM) FP,hFP,not active
same,Ca2+ Signal-EC50(nM) IP,hIP,not active
same,Ca2+ Signal-EC50(nM) EP4,hEP4/Gqs5,not active
same,Ca2+ Signal-EC50(nM) EP1,hEP1,not active
same,EC50,hEP2/Gqs5,34 nM
same,Ca2+ Signal-EC50(nM) TP,hTP,not active
same,Ca2+ Signal-EC50(nM) DP,hDP/Gqs5,not active
